One experiment has as its system mice. The experiment is described as follows: Chloroform-induced arrhythmia. Format: in vivo.
Another experiment relates to Intestinal Smooth Muscle. The experiment is described as follows: Calcium-induced contraction of intestinal smooth muscle specimens. It counts as cell-based, guinea pigs. The following applies: for Contraction Amplitude, calcium-induced (% of control level): 20 mM CaCl2. The protocol: GE and VT served as test substances in this experiment. GE was tested at concentrations of 10^-6 g/ml and 10^-5 g/ml (4.9×10^-6 M and 4.9×10^-5 M, respectively), and VT was tested at concentrations 10^-6 g/ml and 10^-5 g/ml (4.58×10^-6 and 4.58×10^-5 M, respectively).
Small intestinal SMS samples from ten guinea pigs were surgically isolated and prepared as follows. First, the SMS samples were preincubated for 40 minutes in an organ bath holding a standard Krebs-Henseleit physiological salt solution containing calcium chloride (CaCl2) at concentration of 2.5 mM. Next, each SMS was washed with a calcium-free solution of Krebs-Henseleit and incubated in a calcium-free Krebs-Henseleit solution for 40 minutes. Contractile activity was pre-induced in each SMS by first perfusing the organ bath containing the sample for 15 minutes with a Krebs-Henseleit solution containing 30 mM KCl and then perfusing the bath for an additional 15 minutes with a Krebs-Henseleit solution containing 20 mM CaCl2. Finally, each SMS sample was washed with a calcium-free Krebs-Henseleit solution for 40 minutes. In these experiments, measurements of the contractile response of the SMS following the addition of a Krebs-Henseleit solution containing 20 mM calcium served as the control (baseline). Changes in contraction amplitudes were recorded by using the method set forth in Step 1 of Example 2, above.
After washing the SMS as outlined in Step 1, the organ bath with the SMS sample was perfused for 15 minutes with the solution of a test or reference substance. In this instance, GE and VT served as the test substances, and each dipeptide was tested at a concentration of 10^-6 g/ml.
Following perfusion with the test or reference substance, the SMS sample/organ bath was perfused for 10 minutes with a Krebs-Henseleit solution containing 30 mM KCl and then perfused for an additional 10 minutes with a Krebs-Henseleit solution containing 20 mM CaCl2. Next, each SMS sample was washed with a calcium-free Krebs-Henseleit solution for 40 minutes. The effect of the test or reference substance on the SMS sample was evaluated by measuring the contractile response (i.e., the change in contraction amplitude) of the sample following the addition of the Krebs-Henseleit solution containing 20 mM CaCl2.
Next, the organ bath was perfused for 10 minutes with a Krebs-Henseleit solution containing 30 mM KCl and then for additional 10 minutes with a Krebs-Henseleit solution containing 20 mM CaCl2. The effect of the respective test or reference substance was evaluated a second time by measuring the change in the contraction amplitude of the SMS following the addition of the Krebs-Henseleit solution containing 20 mM CaCl2. […]

The next experiment has as its system Rat Portal Vein. The experiment is described as follows: KCl-induced tonic contraction of rat portal vein smooth muscle specimens. Format: cell-based. The protocol:
Spontaneous contraction curve values for each SMS were recorded by making repetitive measurements of the spontaneous contractile activity of each sample at 2, 5, 10, and 15 minutes after the addition of the test or reference substance to each SMS/organ bath. Next, 0.5 ml of a solution of 600 mM solution of KCl in […] in the organ bath until a final concentration of 60 mM KCl was achieved. The contractile activity of each SMS was then measured for 5 minutes.

Where [1] appears, read: 0.001 mg/kg i.p. 15 min before chloroform.
Setting [2] is: 0.01 mg/kg i.p. 15 min before chloroform.
Where [3] appears, read: 0.1 mg/kg i.p. 15 min before chloroform.
Where [4] appears, read: 1.0 mg/kg i.p. 15 min before chloroform.
Setting [5] is: 10.0 mg/kg i.p. 15 min before chloroform.

Residues, ends and D or L forms follow the SMILES beside them.

Protocol for mice: Each mouse in the study was treated by intraperitoneal injection of a dose of a test or control substance 15 minutes prior to the administration of a deep chloroform anesthesia. A test or control substance was then administered to each mouse. […] Novocainamide, a known antiarrhythmic agent, served as the positive control substance and was administered to mice in the positive control group at a dose of 240 mg/kg. Physiological saline served as the negative control substance and was administered to the mice in the negative control group.
Chloroform anesthesia was administered to each mouse by placing the mouse in an airtight glass container with cotton wool soaked in 20 ml of absolute chloroform. At the moment of respiratory arrest, the mouse was removed from the jar and electrocardiogram (ECG) monitoring (standard lead II) was initiated and continued for 30 seconds. […] An antiarrhythmic activity for a particular dose of a test substance is pharmaceutically acceptable if 30% of the animals in a test group show the latter test results (i.e., namely, no sign of ventricular paroxysmal rhythm disturbances and heart rate below 100 beats per 30 seconds within 30 seconds following the respiratory arrest).

Regarding `NCC(=O)N[C@@H](CCC(=O)O)C(=O)O` [GE, L-Glycyl-L-Glutamic acid] (H-Gly-Glu-OH), the “Antiarrhythmic Effect (no. animals) %” value in the experiment on mice (setting [1]) is 11.1%; in the experiment on mice (setting [2]), 44.4%; in the experiment with mice (setting [3]), 44.4%; in the experiment on mice (setting [4]) it was 55.6%; with mice (setting [5]), 66.7%. The “Antiarrhythmic Effect (no. animals) abs” value worked out at 1 in the experiment on mice (setting [1]); 4 in the experiment on mice (setting [2]); 4 in the experiment on mice (setting [3]); 5 with mice (setting [4]); 6 with mice (setting [5]). Besides, the Result result with mice (setting [1]) was “No effect”; in the experiment on mice (setting [2]) it was “Antiarrhythmic effect”; with mice (setting [3]), “Antiarrhythmic effect”; in the experiment with mice (setting [4]), “Antiarrhythmic effect”; in the experiment with mice (setting [5]), “Antiarrhythmic effect”. The “prevention of chloroform-induced ventricular arrhythmias” value in the experiment on mice (0.01, 0.1, 1.0, or 10.0 mg/kg) is “prevent the development of ventricular arrhythmias”. In the experiment with Intestinal Smooth Muscle (10^-6 and 10^-5 g/ml), the “effect on calcium-induced intestinal smooth muscle tonic contraction” value is reported as “significantly reduced the amplitude”. In addition, the “Contraction Amplitude, calcium-induced (% of control level)” value stood at 51.08% with Intestinal Smooth Muscle (Application I, 10^-6 g/ml) and 33.14% in the experiment with Intestinal Smooth Muscle (Application II, 10^-5 g/ml). The “Area Under Curve of KCl-Induced Contraction (% of control)” value in the experiment with Rat Portal Vein (10^-6 g/ml, 60 mM KCl) was 90.26%. For the same compound, in the experiment on Rat Portal Vein (venous smooth muscle specimens), the “effect on tonic contraction induced by KCl” value is on record as “neither GE nor VT effected the character of the tonic contraction”.

For the origin of these results see US5972894A, “Peptides having potassium channel opener activity” (Cytran, Inc., priority 1997, dated 1999).
